Measurements as given in patent US8716249B2, “Compositions and methods for improving cardiovascular health” (Energy Light LLC, priority 2008, dated 2014).
Where two headings read alike, the source gives them in different places.

Tests used:
[1] = cited from earlier work
[2] = Comparison of EAA+arginine with fenofibrate in a similar population of elderly (FIG. 2)
[3] = patients with mixed hyperlipidemia, 80 mg atorvostatin daily or 200 mg fenofibrate

## CC(C)c1c(C(=O)Nc2ccccc2)c(-c2ccccc2)c(-c2ccc(F)cc2)n1CC[C@@H](O)C[C@@H](O)CC(=O)O [atorvostatin]
[1]; [3]
  reduction of TGs: 65%
  reduction of VLDL: 57%

## CC(C)OC(=O)C(C)(C)Oc1ccc(C(=O)c2ccc(Cl)cc2)cc1 [fenofibrate]
[2]; fenofibrate treatment for 60 days
  fall of plasma triglyceride concentration: approximately 33%
[2]; treatment for 60 days
  effect on liver triglyceride: no significant effect

## Cc1ccc(C)c(OCCCC(C)(C)C(=O)O)c1 [gemfibrozil]
[1]; gemfibrozil treatment
  time to maximal effects on TG: ≤ 4 weeks
[1]; patients with hypertryglyceridemia and hypercholesterolemia
  decrease of TG concentrations: 45%
[1]; patients with isolated hypercholesterolemia
  decrease of TG concentrations: 38%
